Measurements: paper PMC11643077, “Synthesis of 1,2,4-Oxadiazin-5(6H)-One Derivatives and Their Biological Investigation as Monoamine Oxidase Inhibitors” (Molecules, 2024)

Columns and labels:
[1] = test system: MAO-A; set-up: method as in doi:10.1016/0223-5234(88)90141-9; conditions: Figure 1; cited from earlier work
[2] = test system: MAO-B; set-up: method as in doi:10.1016/0223-5234(88)90141-9; conditions: Figure 1; cited from earlier work
[3] = molecular target: T1, MAO-A (Homo sapiens, UniProt P21397); assay: MAO-A inhibition, recombinant human enzyme, kynuramine substrate, fluorometric end-point; assay type: biochemical; conditions: mean ± SD of triplicate, racemic mixtures, NI = no inhibition at 100 µM
T1 construct: purchased Merck
T1 sequence (P21397 1-527): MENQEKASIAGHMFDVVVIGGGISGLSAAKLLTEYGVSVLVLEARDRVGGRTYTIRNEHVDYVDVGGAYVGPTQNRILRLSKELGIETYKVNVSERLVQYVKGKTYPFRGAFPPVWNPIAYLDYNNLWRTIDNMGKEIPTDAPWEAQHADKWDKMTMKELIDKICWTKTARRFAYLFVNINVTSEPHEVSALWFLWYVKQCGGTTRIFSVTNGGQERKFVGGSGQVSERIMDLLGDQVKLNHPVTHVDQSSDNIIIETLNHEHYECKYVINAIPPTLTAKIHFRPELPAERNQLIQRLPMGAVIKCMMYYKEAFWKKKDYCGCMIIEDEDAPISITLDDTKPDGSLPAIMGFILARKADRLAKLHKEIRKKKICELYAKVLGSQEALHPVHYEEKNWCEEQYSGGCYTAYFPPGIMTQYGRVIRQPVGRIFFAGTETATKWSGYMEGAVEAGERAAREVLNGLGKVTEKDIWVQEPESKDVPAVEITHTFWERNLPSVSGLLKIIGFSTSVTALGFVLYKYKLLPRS
Procedure: (§1) The in vitro inhibition studies were carried out according to the published procedure, and the inhibition potencies were expressed as the IC50 values (Figure 2). […] A variety of C3 substituents were explored in this study, which included the phenyl, benzyl and 5-methylthiophen-2-yl moieties, while different substituents on the phenyl (e.g., CH3, OCH3, Cl, Br, F, CF3, OCF3, NO2, PhO) were considered.
(§2) The inhibition potencies of the 1,2,4-oxadiazin-5(6H)-one derivatives were determined using commercially available recombinant human MAO-A and MAO-B (Merck) according to the published procedure. Stock solutions of all compounds were prepared in DMSO and added to the enzyme reactions to yield a final concentration of 4% DMSO. […] Kynuramine was used as enzyme substrate for both MAO isoforms and was oxidized to ultimately form 4-hydroxyquinoline, which is a fluorescent metabolite. The concentrations of 4-hydroxyquinoline in the reactions were measured at end-point by fluorescence spectrometry (λex = 310 nm; λem = 400 nm). Using this approach, the rates of kynuramine oxidation by MAO were measured in the presence of different concentrations of the test inhibitors (0.003–100 µM) as well as in the absence of inhibitor. […] IC50 values were estimated from these plots and were reported as the mean ± SD of triplicate determinations.

[4] = molecular target: T2, MAO-B (Homo sapiens, UniProt P27338); assay: MAO-B inhibition, recombinant human enzyme, kynuramine substrate, fluorometric end-point; assay type: biochemical; conditions: mean ± SD of triplicate, racemic mixtures, NI = no inhibition at 100 µM
T2 construct: purchased Merck
T2 sequence (P27338 1-520): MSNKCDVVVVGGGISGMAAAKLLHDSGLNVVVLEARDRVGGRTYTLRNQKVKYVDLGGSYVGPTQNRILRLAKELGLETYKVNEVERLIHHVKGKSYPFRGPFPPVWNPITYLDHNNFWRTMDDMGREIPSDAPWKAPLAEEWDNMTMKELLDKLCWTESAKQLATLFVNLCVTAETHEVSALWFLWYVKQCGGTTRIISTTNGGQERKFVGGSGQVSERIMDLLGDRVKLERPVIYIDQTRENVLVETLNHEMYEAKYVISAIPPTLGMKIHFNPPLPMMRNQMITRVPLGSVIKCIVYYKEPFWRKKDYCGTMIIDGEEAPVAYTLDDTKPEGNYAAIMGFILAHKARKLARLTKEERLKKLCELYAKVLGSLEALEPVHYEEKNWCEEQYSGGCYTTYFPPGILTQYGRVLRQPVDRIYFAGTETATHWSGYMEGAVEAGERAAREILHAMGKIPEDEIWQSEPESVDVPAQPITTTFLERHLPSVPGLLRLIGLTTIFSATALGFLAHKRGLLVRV
Procedure: as §1, §2

[5] = molecular target: T2, MAO-B; assay: Mode of MAO-B inhibition, Lineweaver-Burk plots; assay type: biochemical
Procedure: To investigate the mode of MAO inhibition, Lineweaver–Burk plots were constructed for the two inhibitors of the respective MAO isoforms, 3f and 5f. For each inhibitor, six plots were constructed using a range of eight substrate concentrations (15–250 µM) for each plot. The inhibitor concentrations were selected to bracket the IC50 values. […] For each isoform, a plot was also constructed in the absence of the inhibitor.
To investigate the mode of inhibition, Lineweaver–Burk plots were constructed. A set of six plots were constructed for each test inhibitor using five inhibitor concentrations that bracketed the IC50 value as well as one plot in the absence of inhibitor. For each line, eight different concentrations of kynuramine (15–250 µM) were used. Subsequently, the slopes of the Lineweaver–Burk plots were plotted versus inhibitor concentration, and the Ki values were estimated from the x-intercept (Ki = −x-intercept).

## N#CCCN1N=C(c2ccc(-c3ccccc3)cc2)OCC1=O [A, 2-(4-Biphenylyl)-4-(2-cyanoethyl)-4H-1,3,4-oxadiazin-5(6H)-one]
[1]
  IC50: 32000 nM
[2]
  IC50: 630 nM

## CCC1ON=C(c2ccc(Oc3ccc(OC)cc3)cc2)NC1=O (stereo not shown) [Compound 5f, 6-Ethyl-3-(4-(4-methoxyphenoxy)phenyl)-4H-1,2,4-oxadiazin-5(6H)-one]
[3]
  IC50: 15.4 ± 1.98 µM
[4]
  IC50: 0.9 ± 0.05 µM
[5]; Lineweaver-Burk plots
  mode of MAO-B inhibition: competitive inhibition
[5]; from replot of Lineweaver-Burk slopes versus inhibitor concentration (0.25 to 1.25 µM), kynuramine 15–250 µM
  Ki: 350 nM
other
  melting point: 117 to 119 °C
